The results in this text go back to patent US20260042772A1, “FURO PYRIMIDINE DERIVATES” (Merck Patent GmbH, priority 2022, published 2026).

For assay [1], the system named is chloroquine sensitive (CQS) strain (NF54) of P. falciparum. As to the kind of experiment: In vitro antiplasmodial activity, Assay A (parasite lactate dehydrogenase assay). It is filed as cell-based. As to conditions: Plasmodium falciparum. As to the method:
Test samples were screened for in vitro antiplasmodial activity against a chloroquine sensitive (CQS) strain (NF54) of the malaria parasite P. falciparum. Continuous in vitro cultures of asexual erythrocyte stages of P. falciparum were maintained using a modified version of the method of Trager and Jensen (1976).1 Quantitative assessment of antiplasmodial activity in vitro was determined via the parasite lactate dehydrogenase assay using a modified method described by Makler (1993). The test samples were tested in triplicate on two separate occasions. Further dilutions were prepared in complete medium on the day of the experiment. Samples were tested as a suspension if not completely dissolved. Chloroquine and artesunate were used as the reference drugs. A full dose-response were performed starting at a concentration of 3000 nM, which is then serially diluted 2-fold in complete medium to give 10 concentrations; with the lowest concentration being approximately 6 nM. The same dilution techniques were used for all samples. References were tested at a starting concentration of 1000 ng/mL. The highest concentration of solvent to which the parasites were exposed has no measurable effect on the parasite viability (data not shown).

In assay [2] the test system is CQC sensitive strain (NF54) of P. falciparum. In words: In vitro antiplasmodial activity, Assay B (as described by Vennerstrom et al. 2004). It is filed as cell-based. Particulars: Plasmodium falciparum; NF54, Vennerstrom et al. method. The method, then: Compounds were screened against CQC sensitive strain (NF54) of P. falciparum in vitro as described by Vennerstrom et al. (2004). A full dose-response were performed starting at a concentration of 3000 nM, which is then serially diluted 2-fold in complete medium to give 10 concentrations; with the lowest concentration being approximately 6 nM. The same dilution techniques were used for all samples. References were tested at a starting concentration of 1000 ng/mL. The highest concentration of solvent to which the parasites were exposed has no measurable effect on the parasite viability (data not shown).

As to `C[C@@H]1COCCN1C(=O)c1ccc(-c2cc3ncnc(-c4cccc(C(C)(C)O)c4F)c3o2)cc1` [Compound D196, (R)-(4-(4-(2-fluoro-3-(2-hydroxypropan-2-yl)phenyl)furo[3,2-d]pyrimidin-6-yl)phenyl)(3-methylmorpholino) methanone], the IC50 in assay [1] and in assay [2] was < 0.015 µM each time.

For `C[C@H]1CN(C(=O)c2ccc(-c3cc4ncnc(-c5ccnc(C(C)(C)O)c5)c4o3)cc2)CCO1` [Compound P18, (S)-(4-(4-(2-(2-hydroxypropan-2-yl)pyridin-4-yl)furo[3,2-d]pyrimidin-6-yl)phenyl)(2-methylmorpholino) methanone], the 50% inhibitory concentration (IC50) (as a rule, the concentration that inhibits the measured activity by half) was 0.015 to 0.05 µM in assay [1] and < 0.015 µM in assay [2].

Regarding `CC(C)(O)c1cc(-c2ncnc3cc(-c4ccc(C5(C(=O)N6C[C@@H]7C[C@H]6CO7)CC5)cc4)oc23)ccn1` [Compound P23, ((1S,4S)-2-oxa-5-azabicyclo[2.2.1]heptan-5-yl)(1-(4-(4-(2-(2-hydroxypropan-2-yl)pyridin-4-yl)furo[3,2-d]pyrimidin-6-yl)phenyl)cyclopropyl) methanone], the 50% inhibitory concentration (IC50) in assay [1] and in assay [2] was > 0.05 µM in each case.

For the compound `CC(C)(O)c1cccc(-c2ncnc3cc(-c4ccc(C(=O)N5C[C@H]6C[C@@H]5CO6)cc4)oc23)c1` [Compound D172, ((1R,4R)-2-oxa-5-azabicyclo[2.2.1]heptan-5-yl)(4-(4-(3-(2-hydroxypropan-2-yl)phenyl)furo[3,2-d]pyrimidin-6-yl)phenyl)methanone], the half-maximal inhibitory concentration (IC50) in assay [1] and in assay [2] was < 0.015 µM in each case.

Turning to `CS(=O)(=O)c1ccc(-c2cc3ncnc(-c4ccnc(N5CC(O)C5)c4)c3o2)cc1` [Compound P1, 1-(4-(6-(4-(methylsulfonyl)phenyl)furo [3,2-d]pyrimidin-4-yl)pyridin-2-yl)azetidin-3-ol], the IC50 in assay [1] and in assay [2] was > 0.05 µM throughout.

Consider `C[C@H]1CN(C(=O)c2ccc(-c3cc4ncnc(-c5cccc(C(C)(C)O)c5F)c4o3)cc2)CCO1` [Compound D191, (S)-(4-(4-(2-fluoro-3-(2-hydroxypropan-2-yl)phenyl)furo[3,2-d]pyrimidin-6-yl)phenyl)(2-methylmorpholino) methanone], for which the half-inhibitory concentration (IC50) in assay [1] and in assay [2] was < 0.015 µM throughout.

As for `CC1CN(C(=O)c2ccc(-c3cc4ncnc(-c5ccnc(C(C)(C)O)c5)c4o3)cc2)CC(C)O1` (stereo not drawn) [Compound D161, (2,6-dimethylmorpholino)(4-(4-(2-(2-hydroxypropan-2-yl)pyridin-4-yl)furo[3,2-d]pyrimidin-6-yl)phenyl)methanone], the IC50 in assay [1] and in assay [2] was < 0.015 µM throughout.

Regarding `CC(C)(O)c1nccc(-c2ncnc3cc(-c4ccc(C(=O)N5CCOCC5)cc4)oc23)c1F` [Compound D207, (4-(4-(3-fluoro-2-(2-hydroxypropan-2-yl)pyridin-4-yl)furo[3,2-d]pyrimidin-6-yl)phenyl)(morpholino) methanone], the 50% inhibitory concentration (IC50) in assay [1] and in assay [2] was < 0.015 µM each time.

As to `CC(C)(O)c1cccc(-c2ncnc3cc(-c4ccc(C(=O)N5C[C@H]6C[C@@H]5CO6)cc4)oc23)c1F` [Compound P21, ((1R,4R)-2-oxa-5-azabicyclo[2.2.1]heptan-5-yl)(4-(4-(2-fluoro-3-(2-hydroxypropan-2-yl)phenyl)furo[3,2-d]pyrimidin-6-yl)phenyl)methanone], the IC50 in assay [1] and in assay [2] was < 0.015 µM each time.

With `C[C@@H]1CN(C(=O)c2ccc(-c3cc4ncnc(-c5cccc(C(C)(C)O)c5F)c4o3)cc2)C[C@@H](C)O1` [Compound D193, ((2R,6R)-2,6-dimethylmorpholino)(4-(4-(2-fluoro-3-(2-hydroxypropan-2-yl)phenyl)furo[3,2-d]pyrimidin-6-yl)phenyl)methanone], the concentration for half-maximal inhibition (IC50) in assay [1] and in assay [2] was < 0.015 µM in each case.

On to `C[C@@H]1CN(C(=O)c2ccc(-c3cc4ncnc(-c5cccc(C(C)(C)O)c5F)c4o3)cc2)C[C@H](C)O1` [Compound P20, ((2S,6R)-2,6-dimethylmorpholino)(4-(4-(2-fluoro-3-(2-hydroxypropan-2-yl)phenyl)furo[3,2-d]pyrimidin-6-yl)phenyl)methanone], for which the 50% inhibitory concentration (IC50) in assay [1] and in assay [2] was < 0.015 µM in each case.

For `C[C@@H]1CN(C(=O)c2ccc(-c3cc4ncnc(-c5ccnc(C(C)(C)O)c5)c4o3)cc2)C[C@H](C)O1` [Compound P17, ((2S,6R)-2,6-dimethylmorpholino)(4-(4-(2-(2-hydroxypropan-2-yl)pyridin-4-yl)furo[3,2-d]pyrimidin-6-yl)phenyl)methanone], the IC50 in assay [1] was > 0.05 µM; in assay [2], < 0.015 µM.

As for `CC(C)(O)c1nccc(-c2ncnc3cc(-c4ccc(C(=O)N5C[C@H]6C[C@@H]5CO6)cc4)oc23)c1F` [Compound D208, ((1R,4R)-2-oxa-5-azabicyclo[2.2.1]heptan-5-yl)(4-(4-(3-fluoro-2-(2-hydroxypropan-2-yl)pyridin-4-yl)furo[3,2-d]pyrimidin-6-yl)phenyl)methanone], the IC50 in assay [1] and in assay [2] was < 0.015 µM in each case.

Turning to `CC(C)(O)c1nccc(-c2ncnc3cc(-c4ccc(S(C)(=O)=O)cc4)oc23)c1F` [Compound P31, 2-(3-fluoro-4-(6-(4-(methylsulfonyl)phenyl)furo [3,2-d]pyrimidin-4-yl)pyridin-2-yl)propan-2-ol], the 50% inhibitory concentration (IC50) in assay [1] and in assay [2] was < 0.015 µM each time.

On to `C[C@@H]1CN(C(=O)c2ccc(-c3cc4ncnc(-c5ccnc(C(C)(C)O)c5)c4o3)cc2)CCO1` [Compound P19, (R)-(4-(4-(2-(2-hydroxypropan-2-yl)pyridin-4-yl)furo[3,2-d]pyrimidin-6-yl)phenyl)(2-methylmorpholino) methanone], for which the 50% inhibitory concentration (IC50) in assay [1] and in assay [2] was < 0.015 µM in each case.

Regarding `CC(C)(O)c1cc(-c2ncnc3cc(-c4ccc(C5(C(=O)N6C[C@H]7C[C@@H]6CO7)CC5)cc4)oc23)ccn1` [Compound P24, ((1R,4R)-2-oxa-5-azabicyclo[2.2.1]heptan-5-yl)(1-(4-(4-(2-(2-hydroxypropan-2-yl)pyridin-4-yl)furo[3,2-d]pyrimidin-6-yl)phenyl)cyclopropyl) methanone], the IC50 in assay [1] and in assay [2] was > 0.05 µM each time.

With `CC(C)(O)c1cccc(-c2ncnc3cc(-c4ccc(C(=O)N5C[C@@H]6C[C@H]5CO6)cc4)oc23)c1` [Compound D174, ((1S,4S)-2-oxa-5-azabicyclo[2.2.1]heptan-5-yl)(4-(4-(3-(2-hydroxypropan-2-yl)phenyl)furo[3,2-d]pyrimidin-6-yl)phenyl)methanone], the half-maximal inhibitory concentration (IC50) in assay [1] and in assay [2] was < 0.015 µM each time.

As for `CC(C)(O)c1cc(-c2ncnc3cc(-c4ccc(C(=O)N5C[C@H]6C[C@@H]5CO6)cc4)oc23)ccn1` [Compound D177, ((1R,4R)-2-oxa-5-azabicyclo[2.2.1]heptan-5-yl)(4-(4-(2-(2-hydroxypropan-2-yl)pyridin-4-yl)furo[3,2-d]pyrimidin-6-yl)phenyl)methanone], the IC50 in assay [1] and in assay [2] was < 0.015 µM throughout.

For `CC(C)(O)c1cc(-c2ncnc3cc(-c4ccc(C(=O)N5C[C@@H]6C[C@H]5CO6)cc4)oc23)ccn1` [Compound D176, ((1S,4S)-2-oxa-5-azabicyclo[2.2.1]heptan-5-yl)(4-(4-(2-(2-hydroxypropan-2-yl)pyridin-4-yl)furo[3,2-d]pyrimidin-6-yl)phenyl)methanone], the half-inhibitory concentration (IC50) in assay [1] and in assay [2] was < 0.015 µM in each case.

As for `C[C@H]1COCCN1C(=O)c1ccc(-c2cc3ncnc(-c4cccc(C(C)(C)O)c4F)c3o2)cc1` [Compound D195, (S)-(4-(4-(2-fluoro-3-(2-hydroxypropan-2-yl)phenyl)furo[3,2-d]pyrimidin-6-yl)phenyl)(3-methylmorpholino) methanone], the IC50 in assay [1] and in assay [2] was < 0.015 µM each time.

In the case of `C[C@H]1COCCN1C(=O)c1ccc(-c2cc3ncnc(-c4ccnc(C(C)(C)O)c4)c3o2)cc1` [Compound D159, (S)-(4-(4-(2-(2-hydroxypropan-2-yl)pyridin-4-yl)furo[3,2-d]pyrimidin-6-yl)phenyl)(3-methylmorpholino) methanone], the IC50 in assay [1] was 0.015 to 0.05 µM; in assay [2] it was < 0.015 µM.
